Laboratory results published in ChEMBL document CHEMBL5724914, “Linking interpersonal differences in gut microbiota composition and drug biotransformation activity” (2024).

Tests used:
[1] = The drug is tested on Z-026 corresponding to metagenome with ENA study accession number: PRJEB37062 and ENA sample accession number: ERS12561825 for biotransformation under anaerobic condition. The drug concentrations were measured over 9 timepoints collected between 0 and 24 hours of incubation by liquid-chromatography-coupled mass spectrometry (LC–MS); conditions: 2 µM
[2] = human gut metagenome, 24 h, 2 µM
[3] = human gut metagenome, 24 h, 2 µM; remark: listed apart in the source
[4] = human gut metagenome, 24 h, 2 µM; remark: listed apart in the source
[5] = The drug is tested on Z-029 corresponding to rat gut metagenome with ENA study accession number: PRJEB37062 and ENA sample accession number: ERS12561828 for biotransformation under anaerobic condition. The drug concentrations were measured over 9 timepoints collected between 0 and 24 hours of incubation by liquid-chromatography-coupled mass spectrometry (LC–MS); conditions: 2 µM
[6] = human gut metagenome, 24 h, 2 µM; remark: listed apart in the source
[7] = human gut metagenome, 24 h, 2 µM; remark: listed apart in the source
[8] = The drug is tested on WLS-170 corresponding to human gut metagenome with ENA study accession number: PRJEB37062 and ENA sample accession number: ERS12561762 for biotransformation under anaerobic condition. The drug concentrations were measured over 9 timepoints collected between 0 and 24 hours of incubation by liquid-chromatography-coupled mass spectrometry (LC–MS); conditions: 2 µM
[9] = The drug is tested on Z-013 corresponding to rabbit gut metagenome with ENA study accession number: PRJEB37062 and ENA sample accession number: ERS12561813 for biotransformation under anaerobic condition. The drug concentrations were measured over 9 timepoints collected between 0 and 24 hours of incubation by liquid-chromatography-coupled mass spectrometry (LC–MS); conditions: 2 µM
[10] = The drug is tested on Z-028 corresponding to mouse gut metagenome with ENA study accession number: PRJEB37062 and ENA sample accession number: ERS12561827 for biotransformation under anaerobic condition. The drug concentrations were measured over 9 timepoints collected between 0 and 24 hours of incubation by liquid-chromatography-coupled mass spectrometry (LC–MS); conditions: 2 µM
[11] = human gut metagenome, 24 h, 2 µM; remark: listed apart in the source
[12] = human gut metagenome, 24 h, 2 µM; remark: listed apart in the source
[13] = The drug is tested on WLS-370 corresponding to human gut metagenome with ENA study accession number: PRJEB37062 and ENA sample accession number: ERS12561793 for biotransformation under anaerobic condition. The drug concentrations were measured over 9 timepoints collected between 0 and 24 hours of incubation by liquid-chromatography-coupled mass spectrometry (LC–MS); conditions: 2 µM
[14] = human gut metagenome, 24 h, 2 µM; remark: listed apart in the source
[15] = The drug is tested on WLS-082 corresponding to human gut metagenome with ENA study accession number: PRJEB37062 and ENA sample accession number: ERS12561751 for biotransformation under anaerobic condition. The drug concentrations were measured over 9 timepoints collected between 0 and 24 hours of incubation by liquid-chromatography-coupled mass spectrometry (LC–MS); conditions: 2 µM
[16] = The drug is tested on Z-021 corresponding to metagenome with ENA study accession number: PRJEB37062 and ENA sample accession number: ERS12561820 for biotransformation under anaerobic condition. The drug concentrations were measured over 9 timepoints collected between 0 and 24 hours of incubation by liquid-chromatography-coupled mass spectrometry (LC–MS); conditions: 2 µM
[17] = The drug is tested on WLS-027 corresponding to human gut metagenome with ENA study accession number: PRJEB37062 and ENA sample accession number: ERS12561744 for biotransformation under anaerobic condition. The drug concentrations were measured over 9 timepoints collected between 0 and 24 hours of incubation by liquid-chromatography-coupled mass spectrometry (LC–MS); conditions: 2 µM
[18] = The drug is tested on WLS-010 corresponding to human gut metagenome with ENA study accession number: PRJEB37062 and ENA sample accession number: ERS12561743 for biotransformation under anaerobic condition. The drug concentrations were measured over 9 timepoints collected between 0 and 24 hours of incubation by liquid-chromatography-coupled mass spectrometry (LC–MS); conditions: 2 µM
[19] = The drug is tested on Z-002 corresponding to rabbit gut metagenome with ENA study accession number: PRJEB37062 and ENA sample accession number: ERS12561802 for biotransformation under anaerobic condition. The drug concentrations were measured over 9 timepoints collected between 0 and 24 hours of incubation by liquid-chromatography-coupled mass spectrometry (LC–MS); conditions: 2 µM
[20] = The drug is tested on Z-020 corresponding to rabbit gut metagenome with ENA study accession number: PRJEB37062 and ENA sample accession number: ERS12561819 for biotransformation under anaerobic condition. The drug concentrations were measured over 9 timepoints collected between 0 and 24 hours of incubation by liquid-chromatography-coupled mass spectrometry (LC–MS); conditions: 2 µM
Further: call rule not given here.

With CNNCc1ccc(C(=O)NC(C)C)cc1 [PROCARBAZINE] the “Bacterial Biotransformation” value [1] was “Compound metabolized”, the “Bacterial Biotransformation” value [2] was “Compound NOT metabolized” and the “Bacterial Biotransformation” value [3] was “Compound metabolized”. The “Bacterial Biotransformation” value [4] was “Compound metabolized”, the “Bacterial Biotransformation” value [5] was “Compound NOT metabolized” and the “Bacterial Biotransformation” value [6] was “Compound metabolized”. For the same compound, the “Bacterial Biotransformation” value [7] was “Compound NOT metabolized”, the “Bacterial Biotransformation” value [8] was “Compound metabolized” and the “Bacterial Biotransformation” value [9] was “Compound metabolized”. The “Bacterial Biotransformation” value [10] was “Compound metabolized”, the “Bacterial Biotransformation” value [11] was “Compound metabolized” and the “Bacterial Biotransformation” value [12] was “Compound metabolized”. The “Bacterial Biotransformation” value [13] was “Compound metabolized” and the “Bacterial Biotransformation” value [14] was “Compound metabolized”.
With N#Cc1ccc2[nH]cc(CCCCN3CCN(c4ccc5oc(C(N)=O)cc5c4)CC3)c2c1 [VILAZODONE] the “Bacterial Biotransformation” value [1] was “Compound NOT metabolized”, the “Bacterial Biotransformation” value [15] was “Compound metabolized” and the “Bacterial Biotransformation” value [2] was “Compound metabolized”. The “Bacterial Biotransformation” value [3] was “Compound NOT metabolized”, the “Bacterial Biotransformation” value [4] was “Compound metabolized” and the “Bacterial Biotransformation” value [5] was “Compound NOT metabolized”. For the same compound, the “Bacterial Biotransformation” value [16] was “Compound metabolized”, the “Bacterial Biotransformation” value [6] was “Compound metabolized” and the “Bacterial Biotransformation” value [7] was “Compound metabolized”. For the same compound, the “Bacterial Biotransformation” value [8] was “Compound metabolized”, the “Bacterial Biotransformation” value [9] was “Compound metabolized” and the “Bacterial Biotransformation” value [10] was “Compound metabolized”. The “Bacterial Biotransformation” value [17] was “Compound metabolized”, the “Bacterial Biotransformation” value [11] was “Compound metabolized” and the “Bacterial Biotransformation” value [12] was “Compound metabolized”. For the same compound, the “Bacterial Biotransformation” value [13] was “Compound metabolized”, the “Bacterial Biotransformation” value [18] was “Compound metabolized” and the “Bacterial Biotransformation” value [14] was “Compound metabolized”. The “Bacterial Biotransformation” value [19] was “Compound metabolized”.
In the case of O=C1CCc2ccc(OCCCCN3CCN(c4cccc(Cl)c4Cl)CC3)cc2N1 [ARIPIPRAZOLE], the “Bacterial Biotransformation” value [1] is reported as “Compound metabolized”, the “Bacterial Biotransformation” value [5] is reported as “Compound NOT metabolized” and the “Bacterial Biotransformation” value [16] is reported as “Compound metabolized”. The “Bacterial Biotransformation” value [9] was “Compound metabolized”, the “Bacterial Biotransformation” value [10] was “Compound metabolized” and the “Bacterial Biotransformation” value [20] was “Compound metabolized”. For the same compound, the “Bacterial Biotransformation” value [19] was “Compound NOT metabolized”.
With O=C1N=C([O-])NC1(c1ccccc1)c1ccccc1.[Na+] [PHENYTOIN SODIUM] the “Bacterial Biotransformation” value [1] was “Compound NOT metabolized”, the “Bacterial Biotransformation” value [15] was “Compound metabolized” and the “Bacterial Biotransformation” value [2] was “Compound metabolized”. For the same compound, the “Bacterial Biotransformation” value [3] was “Compound NOT metabolized”, the “Bacterial Biotransformation” value [4] was “Compound metabolized” and the “Bacterial Biotransformation” value [6] was “Compound metabolized”. For the same compound, the “Bacterial Biotransformation” value [7] was “Compound NOT metabolized”, the “Bacterial Biotransformation” value [8] was “Compound metabolized” and the “Bacterial Biotransformation” value [9] was “Compound NOT metabolized”. For the same compound, the “Bacterial Biotransformation” value [10] was “Compound NOT metabolized”, the “Bacterial Biotransformation” value [17] was “Compound metabolized” and the “Bacterial Biotransformation” value [20] was “Compound NOT metabolized”. For the same compound, the “Bacterial Biotransformation” value [11] was “Compound metabolized”, the “Bacterial Biotransformation” value [12] was “Compound metabolized” and the “Bacterial Biotransformation” value [13] was “Compound metabolized”. For the same compound, the “Bacterial Biotransformation” value [18] was “Compound metabolized”, the “Bacterial Biotransformation” value [14] was “Compound metabolized” and the “Bacterial Biotransformation” value [19] was “Compound NOT metabolized”.
With CN(C)CCc1c[nH]c2ccc(CS(=O)(=O)N3CCCC3)cc12 [ALMOTRIPTAN] the “Bacterial Biotransformation” value [15] was “Compound NOT metabolized”, the “Bacterial Biotransformation” value [2] was “Compound metabolized” and the “Bacterial Biotransformation” value [3] was “Compound NOT metabolized”. The “Bacterial Biotransformation” value [4] was “Compound NOT metabolized”, the “Bacterial Biotransformation” value [6] was “Compound NOT metabolized” and the “Bacterial Biotransformation” value [7] was “Compound NOT metabolized”. The “Bacterial Biotransformation” value [8] was “Compound metabolized”, the “Bacterial Biotransformation” value [17] was “Compound NOT metabolized” and the “Bacterial Biotransformation” value [11] was “Compound NOT metabolized”. For the same compound, the “Bacterial Biotransformation” value [12] was “Compound NOT metabolized”, the “Bacterial Biotransformation” value [13] was “Compound NOT metabolized” and the “Bacterial Biotransformation” value [18] was “Compound NOT metabolized”. For the same compound, the “Bacterial Biotransformation” value [14] was “Compound metabolized”.
In the case of CN1CCN(C2=Nc3ccccc3Oc3ccc(Cl)cc32)CC1.O=C(O)CCC(=O)O [LOXAPINE SUCCINATE], the “Bacterial Biotransformation” value [15] is reported as “Compound NOT metabolized”, the “Bacterial Biotransformation” value [2] is reported as “Compound NOT metabolized” and the “Bacterial Biotransformation” value [3] is reported as “Compound NOT metabolized”. The “Bacterial Biotransformation” value [4] was “Compound NOT metabolized”, the “Bacterial Biotransformation” value [6] was “Compound NOT metabolized” and the “Bacterial Biotransformation” value [7] was “Compound NOT metabolized”. The “Bacterial Biotransformation” value [8] was “Compound NOT metabolized”, the “Bacterial Biotransformation” value [17] was “Compound NOT metabolized” and the “Bacterial Biotransformation” value [11] was “Compound NOT metabolized”. The “Bacterial Biotransformation” value [12] was “Compound NOT metabolized”, the “Bacterial Biotransformation” value [13] was “Compound NOT metabolized” and the “Bacterial Biotransformation” value [18] was “Compound NOT metabolized”. For the same compound, the “Bacterial Biotransformation” value [14] was “Compound NOT metabolized”.
In the case of N[C@@H](Cc1ccc(N(CCCl)CCCl)cc1)C(=O)O, the “Bacterial Biotransformation” value [2] is reported as “Compound NOT metabolized”, the “Bacterial Biotransformation” value [4] is reported as “Compound metabolized” and the “Bacterial Biotransformation” value [6] is reported as “Compound NOT metabolized”. The “Bacterial Biotransformation” value [7] was “Compound metabolized”, the “Bacterial Biotransformation” value [8] was “Compound metabolized” and the “Bacterial Biotransformation” value [17] was “Compound metabolized”. The “Bacterial Biotransformation” value [20] was “Compound metabolized”, the “Bacterial Biotransformation” value [11] was “Compound metabolized” and the “Bacterial Biotransformation” value [12] was “Compound metabolized”. For the same compound, the “Bacterial Biotransformation” value [13] was “Compound NOT metabolized”, the “Bacterial Biotransformation” value [18] was “Compound metabolized” and the “Bacterial Biotransformation” value [14] was “Compound metabolized”. The “Bacterial Biotransformation” value [19] was “Compound metabolized”.
With CC(=O)Oc1ccc(C(c2ccc(OC(C)=O)cc2)c2ccccn2)cc1 [BISACODYL] the “Bacterial Biotransformation” value [15] was “Compound metabolized”, the “Bacterial Biotransformation” value [2] was “Compound metabolized” and the “Bacterial Biotransformation” value [3] was “Compound metabolized”. The “Bacterial Biotransformation” value [4] was “Compound metabolized”, the “Bacterial Biotransformation” value [6] was “Compound metabolized” and the “Bacterial Biotransformation” value [7] was “Compound metabolized”. The “Bacterial Biotransformation” value [8] was “Compound metabolized”, the “Bacterial Biotransformation” value [17] was “Compound metabolized” and the “Bacterial Biotransformation” value [11] was “Compound metabolized”. For the same compound, the “Bacterial Biotransformation” value [12] was “Compound metabolized”, the “Bacterial Biotransformation” value [13] was “Compound metabolized” and the “Bacterial Biotransformation” value [18] was “Compound metabolized”. The “Bacterial Biotransformation” value [14] was “Compound metabolized”.
